The values below come from patent US20160251403A1, “PEPTIDE COMBINATIONS AND USES THEREOF IN TREATING DUST MITE ALLERGY” (ALK-ABELLO A/S, priority 2013, published 2016).

Assay [1] deals with DRB1_0405 (Homo sapiens, UniProt P01903+P01911, A100R/A169T/D86S/F76Y/I96L/K127E/L162R/M171V/N62H/P40V/Q125Y/R42H/S133A/S149N/S66Y/V115G/V209L/W38E). Kind of assay: Competitive MHC class II binding assay, DRB1_0405.
In assay [2] the target is DRB1_0701 (Homo sapiens, UniProt P01903+P01911, A100R/A102G/A103Q/D57E/D86V/E43K/F76Y/K127E/L162R/M171V/P40G/Q125H/Q99D/R33Q/R42Y/R54Q/S133A/S66F/T210M/V115G/Y107V/Y59L/Y89S). Kind of assay: Competitive MHC class II binding assay, DRB1_0701.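 Also: displacement of a radiolabeled reference peptide from purified HLA class II protein, with complex-bound radioactivity counted after 2–4 days of incubation and six concentrations spanning a 100,000-fold range.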
For assay [3], the target named is DRB1_0802 (Homo sapiens, UniProt P01903+P01911, A100R/A103L/A169T/F76Y/H45Y/I96F/K41T/L162R/M171V/P40S/Q125H/Q178H/Q39Y/Q99D/R218S/R42G/S66Y/V115G/W38E). The assay can be described thus: Competitive MHC class II binding assay, DRB1_0802.
The target in assay [4] is DRB1_0901 (Homo sapiens, UniProt P01903+P01911, A100R/A103E/D57H/D86V/F55Y/F60I/F76Y/I96F/K127E/L162R/M171V/P40D/Q125H/Q99R/R33Q/R42F/S133A/S66N/T210M/V115G/W38K/Y107V/Y59G/Y89S). The assay can be described thus: Competitive MHC class II binding assay, DRB1_0901.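 Also: displacement of a radiolabeled probe peptide from purified HLA class II protein, bound counts read after two to four days incubation, six concentrations spanning 100,000-fold, unlabeled probe as reference.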
For assay [5], the target named is DRB1_1302 (Homo sapiens, UniProt P01903+P01911, A100E/A169T/K41T/L162R/M171V/P40S/Q125H/Q178H/Q39Y/Q99D/R42S/S66N/T262R/V115G/W38E/Y61H). The assay can be described thus: Competitive MHC class II binding assay, DRB1_1302.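 Also: purified HLA class II protein incubated two to four days with a radiolabeled reference binder and test peptide at six concentrations over a 100,000-fold range, complex-bound radioactivity counted.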
In assay [6] the target is T1, DPA10103-DPB10201 (Homo sapiens, UniProt P04440+P20036, A65V/A84D/A85E/K98E).
T1 sequence (P20036 29-260): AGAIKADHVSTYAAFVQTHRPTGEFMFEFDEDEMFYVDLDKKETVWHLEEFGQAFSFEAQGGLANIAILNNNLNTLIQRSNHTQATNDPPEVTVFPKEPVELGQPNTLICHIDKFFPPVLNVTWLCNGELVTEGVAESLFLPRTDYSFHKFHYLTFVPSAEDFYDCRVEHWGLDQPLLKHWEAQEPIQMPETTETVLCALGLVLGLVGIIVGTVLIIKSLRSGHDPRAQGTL
T1 sequence (P04440 30-258 A65V/A84D/A85E/K98E): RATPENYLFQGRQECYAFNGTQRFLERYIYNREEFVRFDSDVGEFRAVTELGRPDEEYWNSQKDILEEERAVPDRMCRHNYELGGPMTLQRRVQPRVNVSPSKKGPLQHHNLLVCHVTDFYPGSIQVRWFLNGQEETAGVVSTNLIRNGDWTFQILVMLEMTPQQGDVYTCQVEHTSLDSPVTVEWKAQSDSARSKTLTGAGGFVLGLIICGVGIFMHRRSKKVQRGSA
The assay can be described thus: Competitive MHC class II binding assay, DPA10103-DPB10201.

Assay [7] addresses T2, DPA10103-DPB10301 (Homo sapiens, UniProt P04440+P20036, A65V/A84D/A85E/E86D/F38Y/G113D/G114E/G40L/I94L/L37V/M105V/M116V/P115A/R125K/T199I).
T2 sequence (P20036 29-260): T1 sequence (P20036 29-260)
T2 sequence (P04440 30-258 L37V/F38Y/G40L/A65V/A84D/A85E/E86D/I94L/M105V/G113D/G114E/P115A/M116V/R125K/T199I/V234M): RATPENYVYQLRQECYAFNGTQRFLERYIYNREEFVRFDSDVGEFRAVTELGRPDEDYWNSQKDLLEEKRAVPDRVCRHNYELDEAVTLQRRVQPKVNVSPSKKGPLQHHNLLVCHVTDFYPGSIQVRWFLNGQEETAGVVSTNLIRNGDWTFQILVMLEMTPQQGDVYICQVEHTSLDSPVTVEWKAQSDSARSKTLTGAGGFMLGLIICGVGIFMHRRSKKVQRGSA
The assay can be described thus: Competitive MHC class II binding assay, DPA10103-DPB10301.

For assay [8], the target named is DQA10501-DQB10301 (Homo sapiens, UniProt P01909+P01920). Kind of assay: Competitive MHC class II binding assay, DQA10501-DQB10301.
For assay [9], the target named is DQA10301-DQB10302 (Homo sapiens, UniProt P01909+P01920, A209T/A45G/C70Q/D89A/DUP78-78/E183D/E77G/F237L/G63E/H199R/I129T/K197E/L178F/L74F/L98V/Q57E/Q76R/S185I/S97I/T217I/T49S/V73L/Y58L). The assay can be described thus: Competitive MHC class II binding assay, DQA10301-DQB10302.
The target of assay [10] is DQA10102-DQB10602. Kind of assay: Competitive MHC class II binding assay, DQA10102-DQB10602. As to conditions: read-out: HLA-DQA10102-DQB10602; positive binding at cutoff 1000 nM.
Assay [11] concerns the target DRB1_0401 (Homo sapiens, UniProt P01903+P01911, A100K/A169T/F76Y/I96L/K127E/L162R/M171V/N62H/P40V/Q125Y/R42H/S133A/S149N/S66Y/V115G/V209L/W38E). Kind of assay: Competitive MHC class II binding assay, DRB1_0401.
For assay [12], the target named is DRB3_0202 (Homo sapiens, UniProt P01903+P79483, A212P/D57E/F66Y/L67A/R103Q/R218S/R40L/S89Y/T80R/V86D/Y55F/Y59H). The assay can be described thus: Competitive MHC class II binding assay, DRB3_0202.

No end group written: not given here. Bounds are passed on as bounds.

Regarding `CC[C@H](C)[C@H](NC(=O)CNC(=O)[C@@H](NC(=O)[C@@H](NC(=O)[C@@H](NC(=O)[C@H](C)NC(=O)[C@@H](NC(=O)[C@H](C)NC(=O)[C@H](CO)NC(=O)[C@H](Cc1c[nH]cn1)NC(=O)[C@@H](NC(=O)[C@H](CCC(N)=O)NC(=O)[C@H](C)NC(=O)[C@H](CC(C)C)NC(=O)[C@H](C)NC(=O)[C@H](CCC(=O)O)NC(=O)[C@@H](N)CCCNC(=N)N)[C@@H](C)O)[C@@H](C)CC)C(C)C)[C@@H](C)CC)[C@@H](C)CC)C(=O)N[C@@H](CCCCN)C(=O)N[C@@H](CC(=O)O)C(=O)N[C@@H](CC(C)C)C(=O)N[C@@H](CC(=O)O)C(=O)N[C@@H](C)C(=O)O` [pep-130], the IC50 in assay [1], in assay [2], in assay [3], in [4], in assay [5] and in assay [6] was under 1 µM throughout. Also, the IC50 in [7], in [8], in assay [9] and in assay [10] was under 1 µM each time.

Turning to DNGYGYFAANIDLMMIEE [pep-010], the IC50 in assay [11], in assay [1], in assay [2], in assay [3], in assay [4] and in [5] was under 1 µM throughout. In addition, the IC50 in assay [12], in assay [6], in assay [8], in assay [9] and in assay [10] was under 1 µM throughout. For the same compound, the “binding to HLA Class II allele DRB1_1302” value in [5] (as shown in Table 16a) was “binds to at least the same alleles as peptide 041”. Also, in [12] (as shown in Table 16a), the “binding to HLA Class II allele DRB3_0202” value is “binds to at least the same alleles as peptide 041”.

Regarding GSGSSWAFSGVAATESAYLA [pep-044], the IC50 in assay [11], in assay [1], in assay [2], in assay [4], in assay [5] and in [12] was under 1 µM in each case. Also, the IC50 in [7], in [8], in assay [9] and in assay [10] was under 1 µM each time.

In the case of HAVNIVGYSNAQGVDYWIVR [pep-058], the IC50 in [11], in assay [1], in assay [2], in assay [3], in assay [4] and in [5] was under 1 µM each time. The IC50 in assay [7], in assay [8] and in assay [10] was under 1 µM throughout.

On to LVGDNGVLASAIATHAKIRD [pep-110], for which the IC50 in assay [11], in assay [3], in [4], in [5], in assay [8] and in assay [10] was under 1 µM throughout.

Turning to LVKGQQYDIKYTWNVPKIAPK [pep-131], the IC50 in assay [2], in assay [3], in assay [4], in assay [5], in [12] and in assay [6] was under 1 µM throughout. Further, the IC50 in assay [7] was under 1 µM.
